From ChEMBL document CHEMBL1201862, “PubChem BioAssay data set” (2004)
The source made the active and inactive calls.

Experiments:
[1] = molecular target: Dual specificity protein phosphatase 3 (Homo sapiens, UniProt P51452); experiment: VHR1 phosphatase inhibitors, biochemical (AID 1878)
[2] = molecular target: T1, Dual specificity protein phosphatase 6 (Rattus norvegicus, UniProt Q64346); experiment: inhibition of rat DUSP6 enzyme activity – biochemical, in vitro, primary screen (AID 425)
T1 sequence (Q64346 whole entry): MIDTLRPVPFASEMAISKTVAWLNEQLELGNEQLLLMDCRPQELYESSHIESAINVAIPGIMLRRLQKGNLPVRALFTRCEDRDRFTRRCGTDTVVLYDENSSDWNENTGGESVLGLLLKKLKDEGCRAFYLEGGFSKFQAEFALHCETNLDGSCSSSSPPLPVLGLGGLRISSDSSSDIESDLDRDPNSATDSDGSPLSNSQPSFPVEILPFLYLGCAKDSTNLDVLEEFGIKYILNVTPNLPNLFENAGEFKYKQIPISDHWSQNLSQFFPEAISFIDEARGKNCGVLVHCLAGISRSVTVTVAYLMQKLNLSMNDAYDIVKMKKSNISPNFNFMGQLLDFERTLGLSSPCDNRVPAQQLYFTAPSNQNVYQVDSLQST

[3] = system: HeLa; experiment: viability loss in HeLa cells – cell-based, 24 h, cherry-picked samples, cytotoxicity control, dose response (AID 504726); assay type: functional; details: Homo sapiens;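 note: potency for cytotoxicity as loss of luminescence signal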
[4] = molecular target: Troponin, cardiac muscle (Homo sapiens, UniProt P19429+P45379+P63316); experiment: compounds desensitizing RTF to calcium – biochemical, fluorescence, cardiac regulated thin filaments, triplicate IC50, dose response (AID 504742); assay type: protein-complex assay
[5] = molecular target: T2, Endoribonuclease toxin MazF (Escherichia coli K-12, UniProt P0AE70); experiment: substrate-only fluorescence increase artefacts – biochemical, single-stranded RNase substrate, counter-screen for MazEF activator project, dose response (AID 588502); assay type: functional
T2 sequence (P0AE70 whole entry): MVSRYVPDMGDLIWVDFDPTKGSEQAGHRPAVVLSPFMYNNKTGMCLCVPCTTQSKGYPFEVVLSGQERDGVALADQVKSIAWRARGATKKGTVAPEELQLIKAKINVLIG

[6] = molecular target: Polyadenylate-binding protein 1 (Homo sapiens, UniProt P11940); experiment: MLLE domain peptide-binding blockers, IC50 – biochemical, fluorescence polarization, FITC-PAM2 peptide, dose response (AID 602259); assay type: functional; details: read-out: IC50_Mean
[7] = molecular target: Caspase-7 (Homo sapiens, UniProt P55210); experiment: caspase-7 enzyme inhibition, selectivity check – biochemical, DEVD-R110 fluorescence, cherry-pick, selectivity assay for caspase-6 inhibitor project, dose response (AID 743295); assay type: functional
[8] = molecular target: T3, 1-phosphatidylinositol 4,5-bisphosphate phosphodiesterase gamma-1 (Homo sapiens, UniProt P19174); experiment: Counterscreen for inhibitors of phospholipase C isozymes (PLC-B3): Fluorescence-based biochemical high throughput dose response assay to identify inhibitors of phospholipase C isozymes (PLC-gamma1).
T3 sequence (P19174 whole entry): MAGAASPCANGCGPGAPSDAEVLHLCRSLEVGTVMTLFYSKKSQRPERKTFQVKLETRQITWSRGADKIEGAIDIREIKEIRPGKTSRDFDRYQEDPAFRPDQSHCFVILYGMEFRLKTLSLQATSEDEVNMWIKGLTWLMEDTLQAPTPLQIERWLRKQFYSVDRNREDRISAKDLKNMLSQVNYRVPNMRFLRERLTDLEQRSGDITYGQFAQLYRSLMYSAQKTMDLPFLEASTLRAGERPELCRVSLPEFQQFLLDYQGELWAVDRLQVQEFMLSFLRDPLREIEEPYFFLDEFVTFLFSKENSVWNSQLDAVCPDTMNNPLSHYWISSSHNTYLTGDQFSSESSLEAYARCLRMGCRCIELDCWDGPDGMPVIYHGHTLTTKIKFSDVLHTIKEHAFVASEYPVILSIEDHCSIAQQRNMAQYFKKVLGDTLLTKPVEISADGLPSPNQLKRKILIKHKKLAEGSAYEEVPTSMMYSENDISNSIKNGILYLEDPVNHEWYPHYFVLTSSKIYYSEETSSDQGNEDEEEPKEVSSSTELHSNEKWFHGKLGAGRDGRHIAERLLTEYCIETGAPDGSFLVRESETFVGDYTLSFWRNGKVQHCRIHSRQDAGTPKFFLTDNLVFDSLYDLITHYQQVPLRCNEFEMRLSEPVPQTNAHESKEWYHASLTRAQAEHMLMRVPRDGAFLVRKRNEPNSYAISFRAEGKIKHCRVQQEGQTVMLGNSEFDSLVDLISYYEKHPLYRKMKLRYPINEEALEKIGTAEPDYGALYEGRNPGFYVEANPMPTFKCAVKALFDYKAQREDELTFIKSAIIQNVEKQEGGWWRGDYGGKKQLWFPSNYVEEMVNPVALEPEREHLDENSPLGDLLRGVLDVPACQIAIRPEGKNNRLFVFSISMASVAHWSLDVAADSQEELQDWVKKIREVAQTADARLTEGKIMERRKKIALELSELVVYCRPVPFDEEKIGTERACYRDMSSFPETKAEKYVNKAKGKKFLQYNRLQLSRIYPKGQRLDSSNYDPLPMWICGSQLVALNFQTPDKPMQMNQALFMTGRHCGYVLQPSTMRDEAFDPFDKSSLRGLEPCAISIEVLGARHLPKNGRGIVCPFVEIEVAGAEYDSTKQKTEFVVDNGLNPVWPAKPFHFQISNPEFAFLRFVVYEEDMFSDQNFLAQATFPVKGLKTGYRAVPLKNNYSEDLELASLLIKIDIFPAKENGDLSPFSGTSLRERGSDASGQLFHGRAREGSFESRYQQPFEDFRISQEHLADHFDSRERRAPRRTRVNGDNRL

Dual specificity protein phosphatase 3, sequence (P51452 whole entry): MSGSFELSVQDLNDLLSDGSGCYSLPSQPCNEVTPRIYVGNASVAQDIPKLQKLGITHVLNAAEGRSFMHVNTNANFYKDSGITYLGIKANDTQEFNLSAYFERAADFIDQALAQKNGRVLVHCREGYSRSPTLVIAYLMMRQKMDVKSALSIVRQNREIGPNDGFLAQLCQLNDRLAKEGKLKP
Caspase-7, sequence (P55210 24-198 limits assumed): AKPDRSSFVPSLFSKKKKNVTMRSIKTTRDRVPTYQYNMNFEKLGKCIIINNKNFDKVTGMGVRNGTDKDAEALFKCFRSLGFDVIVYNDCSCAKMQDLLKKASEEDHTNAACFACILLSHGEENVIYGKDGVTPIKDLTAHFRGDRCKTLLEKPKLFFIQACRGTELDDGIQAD
Caspase-7, sequence (P55210 207-303 limits assumed): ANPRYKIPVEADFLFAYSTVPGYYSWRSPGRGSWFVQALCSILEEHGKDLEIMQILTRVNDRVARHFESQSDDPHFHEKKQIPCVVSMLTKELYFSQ
Polyadenylate-binding protein 1, sequence (P11940 whole entry, the tested form may be a part): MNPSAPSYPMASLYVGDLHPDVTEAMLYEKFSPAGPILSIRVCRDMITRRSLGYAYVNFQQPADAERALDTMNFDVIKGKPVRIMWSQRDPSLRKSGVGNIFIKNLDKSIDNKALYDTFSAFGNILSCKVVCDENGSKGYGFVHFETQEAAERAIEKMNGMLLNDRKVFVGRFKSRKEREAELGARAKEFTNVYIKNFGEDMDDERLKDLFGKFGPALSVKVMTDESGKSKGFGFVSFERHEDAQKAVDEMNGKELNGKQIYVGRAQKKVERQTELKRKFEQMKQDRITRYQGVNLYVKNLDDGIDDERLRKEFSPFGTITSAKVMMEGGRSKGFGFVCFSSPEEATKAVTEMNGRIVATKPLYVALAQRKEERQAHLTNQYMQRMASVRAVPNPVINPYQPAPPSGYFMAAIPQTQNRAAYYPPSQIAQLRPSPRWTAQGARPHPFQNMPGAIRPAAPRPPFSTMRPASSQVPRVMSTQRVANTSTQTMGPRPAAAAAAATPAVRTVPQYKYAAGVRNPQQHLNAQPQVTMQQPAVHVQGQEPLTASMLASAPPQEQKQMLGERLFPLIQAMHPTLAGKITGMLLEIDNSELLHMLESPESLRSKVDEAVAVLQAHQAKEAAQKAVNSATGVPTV

O=c1c(O)cccc2cc(O)c(O)c(O)c12 [PURPUROGALLIN]
IC50 [1]: < 1.23 µM (inactive)
IC50 [2]: 29.2 µM (active)
AC50 [3]: 103 µM (active)
IC50 [4]: 3.62 µM (active)
EC50 [5]: > 99 µM (inactive)
IC50 [6]: 47.9 µM (inactive)
AC50 [7]: 1.09 µM (active)
IC50 [8]: 20.9 µM (inactive)
